Measured values: the supplement of paper PMC8149375

What was measured:
Conditions in all cases: treatment: drug + dasatinib (fixed dose, not stated); 5 days
769-P [1] = test: GI50 of drug in presence of dasatinib; higher = less potent
Description: (§1)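 Primary HTS combination arm: 8 RCC cell lines treated with 8 doses (up to 10 uM) of each library drug plus a fixed dose of dasatinib (dose not stated) for 5 days; viability read by CellTiter-Glo and normalised to DMSO. GI50 was fitted with XLfit, AUC is the area under the dose-response curve, and minimum viability is the lowest fraction of DMSO viability across doses.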

786-O [2] = test: as above
Description: as §1

A498 [3] = test: as above
Description: as §1

ACHN [4] = test: as above
Description: as §1

CAKI-1 [5] = test: as above
Description: as §1

SN12C [6] = test: as above
Description: as §1

TK-10 [7] = test: as above
Description: as §1

UO-31 [8] = test: as above
Description: as §1

769-P [9] = test: minimum viability across doses, drug + dasatinib, relative to DMSO (fraction); higher = less growth inhibition
Description: as §1

786-O [10] = test: as above
Description: as §1

A498 [11] = test: as above
Description: as §1

ACHN [12] = test: as above
Description: as §1

CAKI-1 [13] = test: as above
Description: as §1

SN12C [14] = test: as above
Description: as §1

TK-10 [15] = test: as above
Description: as §1

UO-31 [16] = test: as above
Description: as §1

769-P [17] = test: AUC of dose-response viability curve, drug + dasatinib, normalised to DMSO (arbitrary (AUC of normalised viability)); higher = less growth inhibition
Description: as §1

786-O [18] = test: as above
Description: as §1

A498 [19] = test: as above
Description: as §1

ACHN [20] = test: as above
Description: as §1

CAKI-1 [21] = test: as above
Description: as §1

SN12C [22] = test: as above
Description: as §1

TK-10 [23] = test: as above
Description: as §1

UO-31 [24] = test: as above
Description: as §1

SMILES	GI50 of drug (769-P [1])	GI50 of drug (786-O [2])	GI50 of drug (A498 [3])	GI50 of drug (ACHN [4])	GI50 of drug (CAKI-1 [5])	GI50 of drug (SN12C [6])	GI50 of drug (TK-10 [7])	GI50 of drug (UO-31 [8])	minimum viability across doses (769-P [9])	minimum viability across doses (786-O [10])	minimum viability across doses (A498 [11])	minimum viability across doses (ACHN [12])	minimum viability across doses (CAKI-1 [13])	minimum viability across doses (SN12C [14])	minimum viability across doses (TK-10 [15])	minimum viability across doses (UO-31 [16])	AUC of dose-response viability curve (769-P [17])	AUC of dose-response viability curve (786-O [18])	AUC of dose-response viability curve (A498 [19])	AUC of dose-response viability curve (ACHN [20])	AUC of dose-response viability curve (CAKI-1 [21])	AUC of dose-response viability curve (SN12C [22])	AUC of dose-response viability curve (TK-10 [23])	AUC of dose-response viability curve (UO-31 [24])
Cc1n[nH]c2ccc(-c3cncc(OC[C@@H](N)Cc4ccccc4)c3)cc12 + Cc1nc(Nc2ncc(C(=O)Nc3c(C)cccc3Cl)s2)cc(N2CCN(CCO)CC2)n1 [dasatinib]	1.05 µM	0.656 µM	1.26 µM	0.0857 µM	0.225 µM	1.53 µM	1.13 µM	0.984 µM	0.00989	0.0069	0.012	0.00362	0.0702	0.0087	0.166	0.00975	1.98	1.77	2.92	1.42	1.57	1.9	2.16	1.97
Cc1ccc(Nc2nccc(N(C)c3ccc4c(C)n(C)nc4c3)n2)cc1S(N)(=O)=O.Cl [Pazopanib HCl] + Cc1nc(Nc2ncc(C(=O)Nc3c(C)cccc3Cl)s2)cc(N2CCN(CCO)CC2)n1 [dasatinib]	8.32 µM	< 0.003 µM	> 10 µM	1.34 µM	0.925 µM	3.1 µM	8.59 µM	8.02 µM	0.123	0.277	0.522	0.175	0.0765	0.327	0.469	0.248	2.22	2.29	3.16	2.13	1.86	2.37	2.54	3.27
COc1cc2nccc(Oc3ccc(NC(=O)C4(C(=O)Nc5ccc(F)cc5)CC4)cc3)c2cc1OC [XL-184 free base (Cabozantinib)] + Cc1nc(Nc2ncc(C(=O)Nc3c(C)cccc3Cl)s2)cc(N2CCN(CCO)CC2)n1 [dasatinib]	2 µM	0.0295 µM	8.99 µM	0.267 µM	0.193 µM	0.915 µM	2.77 µM	1.84 µM	0.135	0.25	0.442	0.0617	0.0187	0.213	0.136	0.0162	2.07	2.2	3.34	1.6	1.76	2.07	2.33	2.75
CN1CCN(c2cccc(Nc3nc4c(-c5ccc(S(C)(=O)=O)cc5)cccn4n3)c2)CC1 + Cc1nc(Nc2ncc(C(=O)Nc3c(C)cccc3Cl)s2)cc(N2CCN(CCO)CC2)n1 [dasatinib]	4.17 µM	5.28 µM	> 10 µM	0.00378 µM	0.704 µM	> 10 µM	1.25 µM	3.16 µM	0.293	0.443	1.02	0.0965	0.0803	0.246	0.174	0.0195	2.27	2.21	3.99	1.23	1.84	2.37	2.12	3.59
O=C(NCc1ccccc1)c1csc(Nc2ccncn2)n1 [Thiazovivin] + Cc1nc(Nc2ncc(C(=O)Nc3c(C)cccc3Cl)s2)cc(N2CCN(CCO)CC2)n1 [dasatinib]	2.83 µM	2.39 µM	> 10 µM	2.07 µM	1.87 µM	> 10 µM	> 10 µM	1.65 µM	0.318	0.327	0.777	0.225	0.175	0.694	0.494	0.0123	2.27	2.04	3.03	2.12	2.04	2.56	2.73	2.79
Cc1ncc(-c2ccnc(Nc3ccc(S(C)(=O)=O)cc3)n2)n1C(C)C [AZD5438] + Cc1nc(Nc2ncc(C(=O)Nc3c(C)cccc3Cl)s2)cc(N2CCN(CCO)CC2)n1 [dasatinib]	0.474 µM	0.128 µM	1.55 µM	0.246 µM	0.238 µM	1.76 µM	0.529 µM	0.367 µM	0.0188	0.00349	0.0116	0.0173	0.0627	0.0122	0.127	0.00804	1.82	1.3	2.78	1.46	1.65	2.05	2.02	2.05
C[C@@H]1COC(Nc2ccc3ncnc(Nc4ccc(OCc5nccs5)c(Cl)c4)c3c2)=N1 + Cc1nc(Nc2ncc(C(=O)Nc3c(C)cccc3Cl)s2)cc(N2CCN(CCO)CC2)n1 [dasatinib]	0.267 µM	> 10 µM	> 10 µM	0.0964 µM	3.55 µM	> 10 µM	0.614 µM	> 10 µM	0.18	0.49	0.988	0.286	0.318	0.638	0.318	0.679	1.87	2.05	4.08	1.62	2.16	2.36	2.03	3.53
CC1(C)CCC(CN2CCN(c3ccc(C(=O)NS(=O)(=O)c4ccc(NCC5CCOCC5)c([N+](=O)[O-])c4)c(Oc4cnc5[nH]ccc5c4)c3)CC2)=C(c2ccc(Cl)cc2)C1 [ABT-199 (GDC-0199 )] + Cc1nc(Nc2ncc(C(=O)Nc3c(C)cccc3Cl)s2)cc(N2CCN(CCO)CC2)n1 [dasatinib]	> 10 µM	> 10 µM	> 10 µM	> 10 µM	> 10 µM	> 10 µM	> 10 µM	> 10 µM	0.692	0.586	0.899	0.542	0.592	0.68	0.61	1	2.58	2.43	3.56	2.01	2.29	2.51	2.39	3.9
Nc1cc(C(F)(F)F)c(-c2cc(N3CCOCC3)nc(N3CCOCC3)n2)cn1 [BKM120 (NVP-BKM120)] + Cc1nc(Nc2ncc(C(=O)Nc3c(C)cccc3Cl)s2)cc(N2CCN(CCO)CC2)n1 [dasatinib]	0.478 µM	0.0817 µM	1.25 µM	0.205 µM	0.244 µM	0.914 µM	0.505 µM	0.663 µM	0.0577	0.00305	0.101	0.0632	0.0204	0.0529	0.0741	0.00967	1.83	1.29	2.49	1.48	1.51	1.84	1.84	2.27
CCn1nnc2c(N3CCOCC3)nc(-c3ccc(NC(=O)Nc4ccc(C(=O)N5CCN(C)CC5)cc4)cc3)nc21 [PKI-402] + Cc1nc(Nc2ncc(C(=O)Nc3c(C)cccc3Cl)s2)cc(N2CCN(CCO)CC2)n1 [dasatinib]	0.45 µM	0.098 µM	0.0875 µM	0.0828 µM	0.122 µM	0.0416 µM	0.117 µM	0.35 µM	0.0547	0.00332	0.148	0.0465	0.0314	0.0929	0.0238	0.00734	1.86	1.41	1.66	1.25	1.48	1.19	1.55	2.39
Cc1nc(Nc2ncc(C(=O)Nc3c(C)cccc3Cl)s2)cc(N2CCN(CCO)CC2)n1 + Cc1nc(Nc2ncc(C(=O)Nc3c(C)cccc3Cl)s2)cc(N2CCN(CCO)CC2)n1 [dasatinib]	0.0382 µM	0.158 µM	8.46 µM	0.0263 µM	0.0236 µM	2.3 µM	0.0188 µM	0.0656 µM	0.0465	0.0726	0.413	0.0702	0.0256	0.422	0.0619	0.0492	1.22	1.71	2.62	1.18	1.03	2.21	1.04	1.44
Nc1nccc(Oc2ccc(NC(=O)c3c[nH]cc(-c4ccc(F)cc4)c3=O)cc2F)c1Cl + Cc1nc(Nc2ncc(C(=O)Nc3c(C)cccc3Cl)s2)cc(N2CCN(CCO)CC2)n1 [dasatinib]	5.58 µM	7.6 µM	> 10 µM	5.54 µM	4.03 µM	> 10 µM	> 10 µM	> 10 µM	0.349	0.44	0.617	0.395	0.323	0.559	0.56	0.717	2.29	2.28	3.3	2.2	2.03	2.34	2.52	4.48
CS(=O)(=O)O.Cc1ccc(NC(=O)c2ccc(CN3CCN(C)CC3)cc2)cc1Nc1nccc(-c2cccnc2)n1 [Imatinib Mesylate] + Cc1nc(Nc2ncc(C(=O)Nc3c(C)cccc3Cl)s2)cc(N2CCN(CCO)CC2)n1 [dasatinib]	> 10 µM	> 10 µM	> 10 µM	> 10 µM	> 10 µM	> 10 µM	> 10 µM	> 10 µM	0.562	0.584	0.945	0.595	0.603	0.688	0.666	0.683	2.34	2.69	3.53	2.48	2.36	2.49	2.85	3.49
Cc1ccc([N+](=O)[O-])cc1S(=O)(=O)N(C)/N=C/c1cnc2ccc(Br)cn12.Cl [PIK-75] + Cc1nc(Nc2ncc(C(=O)Nc3c(C)cccc3Cl)s2)cc(N2CCN(CCO)CC2)n1 [dasatinib]	0.0476 µM	0.0303 µM	0.0656 µM	0.00783 µM	0.0078 µM	0.0577 µM	0.0451 µM	0.043 µM	0.00622	0.00381	0.00818	0.00364	0.0337	0.00539	0.124	0.00696	1.11	0.918	1.29	0.571	0.683	1.07	1.4	1.22
